Results from PubChem BioAssay AID248 (DTP/NCI, 2004).
Inconclusive results and toxic doses are left out. Rule as the data show it: active = T/C of 150% or more; inactive = T/C below 125%.

Test system: L1210 leukemia ip in BDF1 mice, survival T/C
Assay: NCI In Vivo Anticancer Drug Screen. Data for tumor model L1210 Leukemia (intraperitoneal) in B6D2F1 (BDF1) mice
Details: endpoint: mean survival time, higher = longer survival
Method in brief: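 Each compound was tested against a transplantable tumor grown in mice. The endpoint was survival, with treated animals benchmarked against vehicle controls as a simple ratio.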

[1] = dose: 100.0 mg/kg/injection, schedule: Q01DX009 (ip), vehicle: saline with Tween-80
[2] = dose: 100.0 mg/kg/injection, schedule: Q04DX003 (ip), vehicle: saline with Tween-80
[3] = dose: 200.0 mg/kg/injection, schedule: Q01DX009 (ip), vehicle: saline with Tween-80
[4] = dose: 200.0 mg/kg/injection, schedule: Q04DX003 (ip), vehicle: saline with Tween-80
[5] = dose: 400.0 mg/kg/injection, schedule: Q01DX009 (ip), vehicle: saline with Tween-80
[6] = dose: 400.0 mg/kg/injection, schedule: Q04DX003 (ip), vehicle: saline with Tween-80
[7] = dose: 100.0 mg/kg/injection, schedule: Q01DX001 (ip), vehicle: saline
[8] = dose: 100.0 mg/kg/injection, schedule: Q04DX003 (ip), vehicle: saline
[9] = dose: 200.0 mg/kg/injection, schedule: Q01DX001 (ip), vehicle: saline
[10] = dose: 400.0 mg/kg/injection, schedule: Q01DX001 (ip), vehicle: saline
[11] = dose: 100.0 mg/kg/injection, schedule: Q01DX001 (ip), vehicle: saline with Tween-80
[12] = dose: 200.0 mg/kg/injection, schedule: Q01DX001 (ip), vehicle: saline with Tween-80
[13] = dose: 400.0 mg/kg/injection, schedule: Q01DX001 (ip), vehicle: saline with Tween-80
[14] = dose: 100.0 mg/kg/injection, schedule: Q01DX009 (ip), vehicle: saline
[15] = dose: 200.0 mg/kg/injection, schedule: Q01DX009 (ip), vehicle: saline
[16] = dose: 100.0 mg/kg/injection, schedule: Q04DX002 (ip), vehicle: Klucel (hydroxypropylcellulose) (HPC)
[17] = dose: 100.0 mg/kg/injection, schedule: Q01DX009 (ip), vehicle: Klucel (hydroxypropylcellulose) (HPC)
[18] = dose: 25.0 mg/kg/injection, schedule: Q04DX002 (ip), vehicle: Klucel (hydroxypropylcellulose) (HPC)

Measured: T/C

C=CCC(CC)C(=O)Cl (centres undefined)
inactive: [1] 104 % of control | [2] 94 % of control | [3] 91 % of control | [4] 94 % of control | [5] 91 % of control | [6] 102 % of control

COC(=O)c1[nH]cnc1/N=N/N(C)C1CCCCC1
inactive: dose: 100.0 mg/kg/injection, schedule: Q01DX001 (ip), vehicle: carboxymethylcellulose (CMC) 91 % of control | dose: 200.0 mg/kg/injection, schedule: Q01DX001 (ip), vehicle: carboxymethylcellulose (CMC) 102 % of control

Cn1cc[nH]c1=S
inactive: dose: 25.0 mg/kg/injection, schedule: Q04DX003 (ip), vehicle: saline 114 % of control | dose: 50.0 mg/kg/injection, schedule: Q04DX003 (ip), vehicle: saline 90 % of control | [7] 110 % of control | [8] 98 % of control | [9] 107 % of control | [10] 105 % of control

O=c1c2ccccc2oc2ccccc12
inactive: [11] 102 % of control | [2] 96 % of control | [12] 102 % of control | [4] 97 % of control | [13] 102 % of control

O=C(N1CCC2(CC1)SSC1(CCN(C(=O)C(F)(F)F)CC1)S2)C(F)(F)F
inactive: [1] 97 % of control | [3] 97 % of control | [5] 95 % of control

CN(C)CC/C(=N\N=C(N)N)c1ccccc1
inactive: dose: 15.0 mg/kg/injection, schedule: Q01DX Z (ip), vehicle: methylcellulose (MC) 96 % of control | dose: 30.0 mg/kg/injection, schedule: Q01DX Z (ip), vehicle: methylcellulose (MC) 90 % of control | dose: 30.0 mg/kg/injection, schedule: Q01DX Z (oral), vehicle: methylcellulose (MC) 89 % of control | dose: 60.0 mg/kg/injection, schedule: Q01DX Z (ip), vehicle: methylcellulose (MC) 94 % of control | dose: 60.0 mg/kg/injection, schedule: Q01DX Z (oral), vehicle: methylcellulose (MC) 91 % of control

CC(C)c1nnnn1C12CC3CC(CC(C3)C1)C2
inactive: [7] 101 % of control | [9] 101 % of control | [10] 93 % of control

CSc1ccccc1N=Cc1cc(Cl)ccc1O
inactive: [11] 90 % of control

Cc1[nH]c(=O)[nH]c(=O)c1CN(C)Cc1cc(Cl)cc(Cl)c1O
inactive: dose: 50.0 mg/kg/injection, schedule: Q01DX001 (ip), vehicle: saline 95 % of control | [7] 95 % of control | [9] 95 % of control | [10] 101 % of control

CCOC(OCC)c1nc(NC(C)=O)[nH]c(=O)c1CCCCc1ccccc1
inactive: [12] 88 % of control | [13] 91 % of control

CCCCCCCCCCCCCCCCOP(=O)(O)OCCCCCCCCCCCCCCCC
inactive: dose: 50.0 mg/kg/injection, schedule: Q01DX009 (ip), vehicle: saline with Tween-80 98 % of control | [1] 91 % of control | [2] 105 % of control | [3] 89 % of control | [4] 90 % of control | [5] 93 % of control | [6] 95 % of control

CCOC(=O)CCc1ccc(O)c(O)c1
inactive: [14] 100 % of control | [8] 92 % of control | [15] 102 % of control | dose: 200.0 mg/kg/injection, schedule: Q04DX003 (ip), vehicle: saline 111 % of control | dose: 400.0 mg/kg/injection, schedule: Q04DX003 (ip), vehicle: saline 101 % of control

COC1OC(CO)C(NC(N)=O)C1O (centres undefined)
inactive: [16] 105 % of control | dose: 200.0 mg/kg/injection, schedule: Q04DX002 (ip), vehicle: Klucel (hydroxypropylcellulose) (HPC) 105 % of control | dose: 400.0 mg/kg/injection, schedule: Q04DX002 (ip), vehicle: Klucel (hydroxypropylcellulose) (HPC) 111 % of control

CC1CN=C(c2ccc(NC(=O)NCCCCCCCCCNC(=O)Nc3ccc(C4=NCC(C)N4)cc3)cc2)N1 (centres undefined)
inactive: dose: 6.5 mg/kg/injection, schedule: Q01DX Z (ip), vehicle: carboxymethylcellulose (CMC) 86 % of control | dose: 13.0 mg/kg/injection, schedule: Q01DX Z (ip), vehicle: carboxymethylcellulose (CMC) 100 % of control | dose: 26.0 mg/kg/injection, schedule: Q01DX Z (ip), vehicle: carboxymethylcellulose (CMC) 106 % of control | dose: 52.0 mg/kg/injection, schedule: Q01DX Z (ip), vehicle: carboxymethylcellulose (CMC) 107 % of control

O=C(C(=C(c1ccccc1)c1ccccc1)N1CCCCC1)c1ccccc1
inactive: [7] 96 % of control | [17] 92 % of control | [9] 97 % of control | dose: 200.0 mg/kg/injection, schedule: Q01DX009 (ip), vehicle: Klucel (hydroxypropylcellulose) (HPC) 92 % of control | [10] 97 % of control | dose: 400.0 mg/kg/injection, schedule: Q01DX009 (ip), vehicle: Klucel (hydroxypropylcellulose) (HPC) 92 % of control

O=C(Nc1ccc(C2=NCC(O)CN2)cc1)c1ccc(C(=O)Nc2ccc(C3=NCC(O)CN3)cc2)c(Cl)c1 (centres undefined)
inactive: dose: 12.0 micrograms/kg/injection, schedule: Q01DX015 (ip), vehicle: water 96 % of control | dose: 25.0 micrograms/kg/injection, schedule: Q01DX015 (ip), vehicle: water 114 % of control | dose: 50.0 micrograms/kg/injection, schedule: Q01DX015 (ip), vehicle: water 96 % of control | dose: 75.0 micrograms/kg/injection, schedule: Q01DX015 (ip), vehicle: water 102 % of control

CC(c1ccc2ccccc2c1)c1ccccc1C(=O)O (centres undefined)
inactive: dose: 100.0 mg/kg/injection, schedule: Q01DX001 (ip), vehicle: gum acacia 94 % of control | dose: 200.0 mg/kg/injection, schedule: Q01DX001 (ip), vehicle: gum acacia 102 % of control | dose: 400.0 mg/kg/injection, schedule: Q01DX001 (ip), vehicle: gum acacia 89 % of control

CC(C)(Cc1ccccc1)NC(=O)NCCCl
inactive: [14] 97 % of control | dose: 100.0 mg/kg/injection, schedule: Q04DX002 (ip), vehicle: saline 93 % of control | [15] 91 % of control | dose: 200.0 mg/kg/injection, schedule: Q04DX002 (ip), vehicle: saline 96 % of control | dose: 400.0 mg/kg/injection, schedule: Q01DX009 (ip), vehicle: saline 108 % of control | dose: 400.0 mg/kg/injection, schedule: Q04DX002 (ip), vehicle: saline 96 % of control

O=Cc1cccn1-c1cccc2c(-n3cccc3C=O)cccc12
inactive: [18] 97 % of control | dose: 50.0 mg/kg/injection, schedule: Q04DX002 (ip), vehicle: Klucel (hydroxypropylcellulose) (HPC) 93 % of control | [16] 97 % of control

CCCCCCCCN1C(=O)c2ccccc2S1(=O)=O
inactive: dose: 222.0 mg/kg/injection, schedule: Q01DX Z (ip), vehicle: saline 105 % of control | dose: 333.0 mg/kg/injection, schedule: Q01DX Z (ip), vehicle: saline 100 % of control | dose: 500.0 mg/kg/injection, schedule: Q01DX Z (ip), vehicle: saline 113 % of control

COc1cc2cncc(CC(=O)c3ccc4c(c3)OCO4)c2cc1OC
inactive: [2] 106 % of control | [4] 88 % of control

NC(C(=O)O)C(O)c1ccc2c(c1)OCO2 (centres undefined)
inactive: [1] 103 % of control | [3] 103 % of control | [5] 113 % of control

NC(=O)C(=O)c1ccco1
inactive: [7] 92 % of control | [9] 101 % of control | [10] 108 % of control

COc1ccc(C(=O)C(C)C(C)OC(=O)c2ccccc2C(=O)O)cc1 (centres undefined)
inactive: [7] 96 % of control | [9] 98 % of control | [10] 93 % of control

Cc1cc[c]([Hg][I])cc1
inactive: dose: 6.25 mg/kg/injection, schedule: Q01DX009 (ip), vehicle: Klucel (hydroxypropylcellulose) (HPC) 93 % of control | dose: 12.5 mg/kg/injection, schedule: Q01DX009 (ip), vehicle: Klucel (hydroxypropylcellulose) (HPC) 94 % of control | [18] 87 % of control

O=S(=O)(F)c1cc(Cl)c(S)c(Cl)c1
inactive: [17] 100 % of control

CCCCCCCCCCCCCCCCOc1cccc(OCc2ccccc2)c1
inactive: dose: 100.0 mg/kg/injection, schedule: Q04DX003 (ip), vehicle: DMSO 88 % of control | dose: 200.0 mg/kg/injection, schedule: Q04DX003 (ip), vehicle: DMSO 98 % of control | dose: 400.0 mg/kg/injection, schedule: Q04DX003 (ip), vehicle: DMSO 93 % of control
